Assay results taken from patent publication US12077503B2, “Substituted cyclic amides and their use as herbicides” (FMC CORPORATION, priority 2015, dated 2024).

Key:
Format in all cases: in vivo
[1] = tested on: barnyardgrass (Echinochloa crus-galli); assay: Test A preemergence; settings: Echinochloa crus-galli, pre-emergence, 240 h, 0 to 100 scale (0 no effect, 100 complete control), read-out: Plant response rating, Barnyardgrass; for pest or weed control at 500 g/ha: 500 g ai/ha, preemergence; for pest or weed control at 125 g/ha: Preemergence, 125 g ai/ha
Outline: (§1)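 Preemergence directed soil spray on seeded pots, or postemergence application to plants 2–10 cm, one- to two-leaf. Solvent mixture non-phytotoxic, with surfactant. Scored ~10 d later, visually, 0–100 vs untreated.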

[2] = tested on: corn (Zea mays); assay: Test A preemergence; settings: Zea mays, pre-emergence, 240 h, 0 to 100 scale (0 no effect, 100 complete control); for Corn plant response rating (crop injury, 0 = no effect, 100 = complete kill) at 500 g/ha: 500 g ai/ha, preemergence; for Corn plant response rating (crop injury, 0 = no effect, 100 = complete kill) at 125 g/ha: Preemergence, 125 g ai/ha
Outline: as §1

[3] = tested on: crabgrass, large (Digitaria sanguinalis); assay: Test A preemergence; settings: Digitaria sanguinalis, pre-emergence, 240 h, 0 to 100 scale (0 no effect, 100 complete control), read-out: Plant response rating, Crabgrass, Large; for pest or weed control at 500 g/ha: 500 g ai/ha, preemergence; for pest or weed control at 125 g/ha: Preemergence, 125 g ai/ha
Outline: as §1

[4] = tested on: giant foxtail (Setaria faberii); assay: Test A preemergence; settings: Setaria faberi, pre-emergence, 240 h, 0 to 100 scale (0 no effect, 100 complete control), read-out: Plant response rating, Foxtail, Giant; for pest or weed control at 500 g/ha: 500 g ai/ha, preemergence; for pest or weed control at 125 g/ha: Preemergence, 125 g ai/ha
Outline: as §1

[5] = tested on: morningglory (Ipomoea spp.); assay: Test A preemergence; settings: Ipomoea, pre-emergence, 240 h, 0 to 100 scale (0 no effect, 100 complete control), read-out: Plant response rating, Morningglory; for pest or weed control at 500 g/ha: 500 g ai/ha, preemergence; for pest or weed control at 125 g/ha: Preemergence, 125 g ai/ha
Outline: as §1

[6] = tested on: pigweed (Amaranthus retroflexus); assay: Test A preemergence; settings: Amaranthus retroflexus, pre-emergence, 240 h, 0 to 100 scale (0 no effect, 100 complete control), read-out: Plant response rating, Pigweed; for pest or weed control at 500 g/ha: 500 g ai/ha, preemergence; for pest or weed control at 125 g/ha: Preemergence, 125 g ai/ha
[7] = tested on: velvetleaf (Abutilon theophrasti); assay: Test A preemergence; settings: Abutilon theophrasti, pre-emergence, 240 h, 0 to 100 scale (0 no effect, 100 complete control), read-out: Plant response rating, Velvetleaf; for pest or weed control at 500 g/ha: 500 g ai/ha, preemergence; for pest or weed control at 125 g/ha: Preemergence, 125 g ai/ha
Outline: as §1

[8] = tested on: wheat (Triticum aestivum); assay: Test A preemergence; settings: Triticum aestivum, pre-emergence, 240 h, 0 to 100 scale (0 no effect, 100 complete control), read-out: Plant response rating, Wheat; for plant injury at 500 g/ha: 500 g ai/ha, preemergence; for plant injury at 125 g/ha: Preemergence, 125 g ai/ha
Outline: as §1

[9] = tested on: barnyardgrass (Echinochloa crus-galli); assay: Test A postemergence; settings: Echinochloa crus-galli, post-emergence, 240 h, Postemergence; for pest or weed control at 125 g/ha: 125 g ai/ha, visual rating about 10 d after treatment, read-out: Barnyardgrass plant response rating (0 to 100 scale, 0 no effect, 100 complete control); for pest or weed control at 500 g/ha: 500 g ai/ha, visual injury, 0 to 100 scale (0 no effect, 100 complete control), approx. 10 d, read-out: Plant response rating, Barnyardgrass
Outline: as §1

[10] = tested on: corn (Zea mays); assay: Test A postemergence; settings: Zea mays, post-emergence, 240 h, Postemergence; for plant injury at 125 g/ha: 125 g ai/ha, visual rating about 10 d after treatment, read-out: Corn plant response rating (0 to 100 scale); for Corn plant response rating (crop injury, 0 = no effect, 100 = complete kill) at 500 g/ha: 500 g ai/ha, visual injury, 0 to 100 scale (0 no effect, 100 complete control), approx. 10 d
Outline: as §1

[11] = tested on: crabgrass, large (Digitaria sanguinalis); assay: Test A postemergence; settings: Digitaria sanguinalis, post-emergence, 240 h, Postemergence; for pest or weed control at 125 g/ha: 125 g ai/ha, visual rating about 10 d after treatment, read-out: Crabgrass, Large plant response rating (0 to 100 scale); for pest or weed control at 500 g/ha: 500 g ai/ha, visual injury, 0 to 100 scale (0 no effect, 100 complete control), approx. 10 d, read-out: Plant response rating, Crabgrass, Large
Outline: as §1

[12] = tested on: giant foxtail (Setaria faberii); assay: Test A postemergence; settings: Setaria faberi, post-emergence, 240 h, Postemergence; for pest or weed control at 125 g/ha: 125 g ai/ha, visual rating about 10 d after treatment, read-out: Foxtail, Giant plant response rating (0 to 100 scale); for pest or weed control at 500 g/ha: 500 g ai/ha, visual injury, 0 to 100 scale (0 no effect, 100 complete control), approx. 10 d, read-out: Plant response rating, Foxtail, Giant
Outline: as §1

[13] = tested on: morningglory (Ipomoea spp.); assay: Test A postemergence; settings: Ipomoea, post-emergence, 240 h, Postemergence; for pest or weed control at 125 g/ha: 125 g ai/ha, visual rating about 10 d after treatment, read-out: Morningglory plant response rating (0 to 100 scale); for pest or weed control at 500 g/ha: 500 g ai/ha, visual injury, 0 to 100 scale (0 no effect, 100 complete control), approx. 10 d, read-out: Plant response rating, Morningglory
Outline: as §1

[14] = tested on: pigweed (Amaranthus retroflexus); assay: Test A postemergence; settings: Amaranthus retroflexus, post-emergence, 240 h, Postemergence; for pest or weed control at 125 g/ha: 125 g ai/ha, visual rating about 10 d after treatment, read-out: Pigweed plant response rating (0 to 100 scale); for pest or weed control at 500 g/ha: 500 g ai/ha, visual injury, 0 to 100 scale (0 no effect, 100 complete control), approx. 10 d, read-out: Plant response rating, Pigweed
Outline: as §1

[15] = tested on: velvetleaf (Abutilon theophrasti); assay: Test A postemergence; settings: Abutilon theophrasti, post-emergence, 240 h, Postemergence; for pest or weed control at 125 g/ha: 125 g ai/ha, visual rating about 10 d after treatment, read-out: Velvetleaf plant response rating (0 to 100 scale); for pest or weed control at 500 g/ha: 500 g ai/ha, visual injury, 0 to 100 scale (0 no effect, 100 complete control), approx. 10 d, read-out: Plant response rating, Velvetleaf
Outline: as §1

[16] = tested on: wheat (Triticum aestivum); assay: Test A postemergence; settings: Triticum aestivum, post-emergence, 240 h, Postemergence; for plant injury at 125 g/ha: 125 g ai/ha, visual rating about 10 d after treatment, read-out: Wheat plant response rating (0 to 100 scale); for plant injury at 500 g/ha: 500 g ai/ha, visual injury, 0 to 100 scale (0 no effect, 100 complete control), approx. 10 d, read-out: Plant response rating, Wheat
Outline: as §1

O=C1NCC(c2c(Cl)cccc2Cl)C1C(=O)Nc1ccccc1F (stereo not shown) [Compound 1361]
0%: pest or weed control at 500 g/ha [1] | pest or weed control at 125 g/ha [1] | Corn plant response rating (crop injury, 0 = no effect, 100 = complete kill) at 500 g/ha [2] | Corn plant response rating (crop injury, 0 = no effect, 100 = complete kill) at 125 g/ha [2] | pest or weed control at 500 g/ha [3] | pest or weed control at 125 g/ha [3] | pest or weed control at 500 g/ha [4] | pest or weed control at 125 g/ha [4] | pest or weed control at 500 g/ha [5] | pest or weed control at 125 g/ha [5] | pest or weed control at 500 g/ha [6] | pest or weed control at 125 g/ha [6] | pest or weed control at 500 g/ha [7] | pest or weed control at 125 g/ha [7] | plant injury at 500 g/ha [8] | plant injury at 125 g/ha [8] | pest or weed control at 125 g/ha [9] | pest or weed control at 500 g/ha [9] | plant injury at 125 g/ha [10] | Corn plant response rating (crop injury, 0 = no effect, 100 = complete kill) at 500 g/ha [10] | pest or weed control at 125 g/ha [11] | pest or weed control at 500 g/ha [11] | pest or weed control at 125 g/ha [12] | pest or weed control at 500 g/ha [12] | pest or weed control at 125 g/ha [13] | pest or weed control at 500 g/ha [13] | pest or weed control at 125 g/ha [14] | pest or weed control at 500 g/ha [14] | pest or weed control at 125 g/ha [15] | pest or weed control at 500 g/ha [15] | plant injury at 125 g/ha [16] | plant injury at 500 g/ha [16]

CN1C[C@H](c2ccccc2)[C@](C)(C(=O)Nc2ccccc2F)C1=O (racemic) [Compound 1360]
0%: pest or weed control at 500 g/ha [1] | pest or weed control at 125 g/ha [1] | Corn plant response rating (crop injury, 0 = no effect, 100 = complete kill) at 500 g/ha [2] | Corn plant response rating (crop injury, 0 = no effect, 100 = complete kill) at 125 g/ha [2] | pest or weed control at 500 g/ha [3] | pest or weed control at 125 g/ha [3] | pest or weed control at 500 g/ha [4] | pest or weed control at 125 g/ha [4] | pest or weed control at 500 g/ha [5] | pest or weed control at 125 g/ha [5] | pest or weed control at 500 g/ha [6] | pest or weed control at 125 g/ha [6] | pest or weed control at 500 g/ha [7] | pest or weed control at 125 g/ha [7] | plant injury at 500 g/ha [8] | plant injury at 125 g/ha [8] | pest or weed control at 125 g/ha [9] | pest or weed control at 500 g/ha [9] | plant injury at 125 g/ha [10] | Corn plant response rating (crop injury, 0 = no effect, 100 = complete kill) at 500 g/ha [10] | pest or weed control at 125 g/ha [11] | pest or weed control at 500 g/ha [11] | pest or weed control at 125 g/ha [12] | pest or weed control at 500 g/ha [12] | pest or weed control at 125 g/ha [13] | pest or weed control at 500 g/ha [13] | pest or weed control at 125 g/ha [14] | pest or weed control at 500 g/ha [14] | pest or weed control at 125 g/ha [15] | pest or weed control at 500 g/ha [15] | plant injury at 125 g/ha [16] | plant injury at 500 g/ha [16]
